# Laboratory results as given in US20130310379A1, “MODULATORS OF METHYL MODIFYING ENZYMES, COMPOSITIONS AND USES THEREOF” (CONSTELLATION PHARMACEUTICALS, priority 2010, published 2013).
# Target: EZH2 (Homo sapiens, UniProt Q15910)
# Test: EZH2 assay: rPRC2 with biotinylated oligonucleosome substrates and 3H SAM, FlashPlate scintillation counting, IC50
# Type: biochemical
# Conditions: rPRC2, biotinylated oligonucleosome substrates, 3H SAM; read-out: EZH2 IC50
# Protocol: Assays were carried out by mixing rPRC2 together with biotinylated oligonucleosome substrates in the presence of the radio-labeled enzyme co-factor, S-adenosyl-L-methionine (^3H SAM) (Perkin Elmer) and monitoring the enzymatically mediated transfer of tritiated methyl groups from ^3H SAM to histone lysine residues. The amount of resulting tritated methylhistone product was measured by first capturing the biotinylated oligonuclesomes in streptavidin (SAV) coated FlashPlates (Perkin Elmer), followed by a wash step to remove un-reacted ^3H SAM, and then counting on a TopCount NXT 384 well plate scintillation counter (Perkin Elmer). The final assay conditions for EZH2 were as follows: 50 mM Tris Buffer pH 8.5, 1 mM DTT, 69 uM Brij-35 detergent, 5.0 mM MgCl2, 0.1 mg/mL BSA, 0.2 uM ^3H SAM, 0.2 uM biotinylated oligonucleosomes, 3.6 uM H3K27me3 peptide and 2 nM EZH2.
# Compound IC50 measurements were obtained as follows: Compounds were first dissolved in 100% DMSO as 10 mM stock solutions. […] A 12.5 uL volume of the HMT enzyme, H3K27me3 peptide and oligonucleosome substrate in assay buffer was added to each well of the assay plate using a Multidrop Combi (ThermoFisher). Compounds were pre-incubated with the enzyme for 20 min, followed by initiation of the methyltransferase reaction by addition of 12.5 uL of 3H SAM in assay buffer (final volume=25 uL). The final concentrations of compounds ranged from a top default concentration of 80 uM down to 0.16 uM in ten 2-fold dilution steps. Reactions were carried out for 60 minutes and quenched with 20 uL per well of 1.96 mM SAH, 50 mM Tris PH 8.5, 200 mM EDTA. Stopped reactions were transferred to SAV coated Flashplates (Perkin Elmer), incubated for 120 min, washed with a plate washer, and then read on the TopCount NXT (1.0 min/well) to measure the amount of methylhistone product formed during the reaction. The amount of methylhistone product was compared with the amount of product formed in the 0% and 100% inhibition control wells allowing the calculation of % Inhibition in the presence of the individual compounds at various concentrations. IC50's were computed using a 4 parameter fit non-linear curve fitting software package (XLFIT, part of the database package, ActivityBase (IDBS)) where the four parameters were IC50, Hill slope, pre-transitional baseline (0% INH), and post-transitional baseline (100% INH); with the latter two parameters being fixed to zero and 100%, respectively, by default.
# EZH2, sequence (Q15910 whole entry): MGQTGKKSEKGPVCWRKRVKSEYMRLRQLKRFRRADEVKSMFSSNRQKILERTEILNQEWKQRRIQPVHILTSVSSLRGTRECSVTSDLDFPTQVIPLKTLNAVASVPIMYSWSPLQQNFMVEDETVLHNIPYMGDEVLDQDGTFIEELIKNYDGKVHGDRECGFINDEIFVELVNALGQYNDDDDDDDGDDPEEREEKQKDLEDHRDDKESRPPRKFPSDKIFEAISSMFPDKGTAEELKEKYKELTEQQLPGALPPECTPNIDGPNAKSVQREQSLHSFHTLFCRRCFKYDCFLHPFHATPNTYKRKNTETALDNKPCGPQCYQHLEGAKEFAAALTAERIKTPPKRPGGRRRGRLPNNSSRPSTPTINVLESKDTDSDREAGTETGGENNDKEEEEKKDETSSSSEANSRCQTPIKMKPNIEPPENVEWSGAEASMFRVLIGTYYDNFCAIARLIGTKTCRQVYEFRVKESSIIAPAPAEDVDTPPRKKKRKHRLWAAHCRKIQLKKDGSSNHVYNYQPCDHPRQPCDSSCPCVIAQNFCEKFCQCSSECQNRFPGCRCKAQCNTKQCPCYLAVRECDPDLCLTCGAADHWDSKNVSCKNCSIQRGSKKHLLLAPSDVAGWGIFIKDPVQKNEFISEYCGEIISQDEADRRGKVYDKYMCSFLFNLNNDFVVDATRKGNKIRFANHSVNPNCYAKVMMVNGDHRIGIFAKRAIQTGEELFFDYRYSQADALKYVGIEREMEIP
# EZH2, sequence (O75530 whole entry partner): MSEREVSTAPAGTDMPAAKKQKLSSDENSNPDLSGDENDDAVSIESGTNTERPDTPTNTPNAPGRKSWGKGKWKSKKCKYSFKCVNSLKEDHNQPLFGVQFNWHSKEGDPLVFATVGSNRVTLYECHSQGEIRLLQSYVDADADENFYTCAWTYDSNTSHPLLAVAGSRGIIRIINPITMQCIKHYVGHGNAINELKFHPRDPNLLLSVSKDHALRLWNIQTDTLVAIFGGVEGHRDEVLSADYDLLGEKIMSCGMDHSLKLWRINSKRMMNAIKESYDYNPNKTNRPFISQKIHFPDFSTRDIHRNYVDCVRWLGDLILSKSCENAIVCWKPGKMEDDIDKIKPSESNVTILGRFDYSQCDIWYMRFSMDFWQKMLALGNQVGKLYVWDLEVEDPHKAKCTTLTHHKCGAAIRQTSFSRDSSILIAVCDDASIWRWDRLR
# EZH2, sequence (Q15022 whole entry partner): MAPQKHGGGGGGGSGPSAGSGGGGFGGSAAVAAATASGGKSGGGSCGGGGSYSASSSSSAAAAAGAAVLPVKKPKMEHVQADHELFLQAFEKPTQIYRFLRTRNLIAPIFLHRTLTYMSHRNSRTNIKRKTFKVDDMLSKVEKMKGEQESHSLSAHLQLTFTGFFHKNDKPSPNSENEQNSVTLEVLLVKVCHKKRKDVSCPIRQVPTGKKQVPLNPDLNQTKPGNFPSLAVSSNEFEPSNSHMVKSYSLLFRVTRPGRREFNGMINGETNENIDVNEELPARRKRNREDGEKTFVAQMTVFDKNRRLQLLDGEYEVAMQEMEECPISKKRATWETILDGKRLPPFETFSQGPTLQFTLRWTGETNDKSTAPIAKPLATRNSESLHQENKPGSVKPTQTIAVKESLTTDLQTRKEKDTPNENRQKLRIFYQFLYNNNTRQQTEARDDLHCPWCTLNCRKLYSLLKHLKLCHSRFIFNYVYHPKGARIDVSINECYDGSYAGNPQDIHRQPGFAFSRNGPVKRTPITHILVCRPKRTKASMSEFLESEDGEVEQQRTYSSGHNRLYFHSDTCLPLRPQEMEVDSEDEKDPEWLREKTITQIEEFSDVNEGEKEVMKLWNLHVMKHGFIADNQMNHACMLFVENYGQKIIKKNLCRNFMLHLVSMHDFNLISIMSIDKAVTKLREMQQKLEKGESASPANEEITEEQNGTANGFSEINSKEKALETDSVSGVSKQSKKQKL
row,SMILES,IC50
1,"CC1(C)CC(NC(=O)c2ccc(Oc3ccccc3)nc2)CC(C)(C)N1 [Compound I-64, 6-Phenoxy-N-(2,2,6,6-tetramethylpiperidin-4-yl)nicotinamide]",20 to 80 µM
2,CN1CCC(N(C)C(=O)c2ccc(Oc3ccccc3)cc2)CC1 [Compound I-72],> 80 µM
3,CC1(C)CC(NC(=O)c2ccc(Oc3ccc([N+](=O)[O-])cc3)cc2)CC(C)(C)N1 [Compound I-73],> 80 µM
4,CC1(C)CC(NC(=O)c2ccc(Oc3cnccn3)cc2)CC(C)(C)N1 [Compound I-78],> 80 µM
5,CC1(C)CC(NC(=O)c2ccc(Oc3ncccn3)cc2)CC(C)(C)N1 [Compound I-79],> 80 µM
6,CC1(C)CC(NC(=O)c2ccc(Oc3ccc4[nH]ccc4c3)cc2)CC(C)(C)N1 [Compound I-82],> 80 µM
7,CC1(C)CC(NC(=O)c2ccc(Oc3ccc(F)cc3)cc2)CC(C)(C)N1 [Compound I-86],> 80 µM
8,Cc1ccc(Oc2ccc(C(=O)NC3CC(C)(C)NC(C)(C)C3)cc2)cc1C [Compound I-87],> 80 µM
9,CC1(C)CC(NC(=O)c2ccc(Oc3ccc(Cl)cc3)cc2)CC(C)(C)N1 [Compound I-91],> 80 µM
10,Cc1ccc(Oc2ccc(C(=O)NC3CC(C)(C)NC(C)(C)C3)cc2)cc1 [Compound I-92],> 80 µM
11,CC1(C)CC(NC(=O)c2ccc(Oc3ccc(Br)cc3)cc2)CC(C)(C)N1 [Compound I-93],> 80 µM
12,CC1(C)CC(NC(=O)c2cccc(Oc3ccccc3)c2)CC(C)(C)N1 [Compound I-94],> 80 µM
13,CC1(C)CC(NC(=O)c2ccccc2Oc2ccccc2)CC(C)(C)N1 [Compound I-95],> 80 µM
14,CC(C)NC(=O)c1ccc(Oc2ccccc2)cc1 [Compound I-96],> 80 µM
15,COc1ccc(Oc2ccc(C(=O)NC3CC(C)(C)NC(C)(C)C3)cc2)cc1 [Compound I-97],> 80 µM
16,O=C(c1ccc(Oc2ccccc2)cc1)N1CCN(c2ccccc2)CC1 [Compound I-99],> 80 µM
17,O=C(N[C@H]1CCN(Cc2ccccc2)C1)c1ccc(Oc2ccccc2)cc1 [Compound I-100],> 80 µM

row,SMILES,IC50
1,O=C(NCCc1cccnc1)c1ccc(Oc2ccccc2)cc1 [Compound I-102],> 80 µM
2,"CC1(C)CC(NC(=O)c2ccc(Oc3ncccc3C(N)=O)cc2)CC(C)(C)N1 [Compound I-103, 2-(4-(2,2,6,6-Tetramethylpiperidin-4-ylcarbamoyl)phenoxy)nicotinamide]",> 80 µM
3,"CC1(C)CC(NC(=O)c2ccc(Nc3ccccc3)nc2)CC(C)(C)N1 [Compound I-104, 6-(Phenylamino)-N-(2,2,6,6-tetramethylpiperidin-4-yl)nicotinamide]",> 80 µM
4,CC1(C)CC(NC(=O)c2cccc(-c3ccccc3)c2)CC(C)(C)N1 [Compound I-105],> 80 µM
5,CC1(C)CC(NC(=O)c2ccc(Nc3ccccc3)cc2)CC(C)(C)N1 [Compound I-107],> 80 µM
6,"CN(c1ccccc1)c1ccc(C(=O)NC2CC(C)(C)NC(C)(C)C2)cc1 [Compound I-108, 4-(Methyl(phenyl)amino)-N-(2,2,6,6-tetramethylpiperidin-4-yl)benzamide]",> 80 µM
7,CC1(C)CC(NC(=O)c2cccc(COc3ccccc3)c2)CC(C)(C)N1 [Compound I-111],> 80 µM
8,CN1CCC(NC(=O)c2ccc(Oc3ccccc3)cc2)CC1 [Compound I-113],> 80 µM
9,CN1C2CCC1CC(NC(=O)c1ccc(Oc3ccccc3)cc1)C2 (stereo not drawn) [Compound I-114],> 80 µM
10,Cc1cc(C)cc(OCc2cccc(C(=O)NC3CC(C)(C)NC(C)(C)C3)c2)c1 [Compound I-115],> 80 µM
11,O=C(NC1CCN(C(=O)c2ccccc2)CC1)c1ccc(Oc2ccccc2)cc1 [Compound I-116],> 80 µM
12,"CC(Oc1ccccc1)c1ccc(C(=O)NC2CC(C)(C)NC(C)(C)C2)cc1 (stereo not drawn) [Compound I-118, 4-(1-phenoxyethyl)-N-(2,2,6,6-tetramethylpiperidin-4-yl)benzamide]",> 80 µM
13,Cc1cc(C)cc(Oc2ccc(C(=O)NC3CC(C)(C)NC(C)(C)C3)cc2)c1 [Compound I-119],> 80 µM
14,"COc1ccc(Oc2ccc(C(=O)NC3CC(C)(C)NC(C)(C)C3)cc2)c(C(=O)O)c1 [Compound I-120, 2-(4-(2,2,6,6-tetramethylpiperidin-4-ylcarbamoyl)phenoxy)-5-methoxy benzoic acid]",> 80 µM
15,CC1(C)CC(NC(=O)c2ccc(Oc3ccccc3)cc2O)CC(C)(C)N1 [Compound I-122],> 80 µM
16,CC1(C)CC(NC(=O)c2ccc(Oc3ccccc3O)cc2)CC(C)(C)N1 [Compound I-123],> 80 µM
17,"Cc1cc(Oc2ccccc2)ccc1C(=O)NC1CC(C)(C)NC(C)(C)C1 [Compound I-124, 2-methyl-4-phenoxy-N-(2,2,6,6-tetramethylpiperidin-4-yl)-benzamide]",> 80 µM

# Results, then the compound that gave them:
row,IC50,SMILES
1,20 to 80 µM,COc1ccc(OCc2ccc(C(=O)NC3CC(C)(C)NC(C)(C)C3)cc2)cc1 [Compound I-63]
2,20 to 80 µM,CC1(C)CC(NC(=O)c2ccc(COc3cccc(-c4ccc(=O)[nH]c4)c3)cc2)CC(C)(C)N1 [Compound I-65]
3,20 to 80 µM,CC1(C)CC(NC(=O)c2ccc(COc3ccnc(Cl)c3)cc2)CC(C)(C)N1 [Compound I-66]
4,20 to 80 µM,CC1(C)CC(NC(=O)c2ccc(COc3ccc(C#N)cc3)cc2)CC(C)(C)N1 [Compound I-67]
5,> 80 µM,"CC1(C)CC(NC(=O)c2ccc(Oc3ccc(I)cn3)cc2)CC(C)(C)N1 [Compound I-68, 4-(5-Iodopyridin-2-yloxy)-N-(2,2,6,6-tetramethylpiperidin-4-yl)benzamide]"
6,> 80 µM,Cc1cccc(C)c1Oc1ccc(C(=O)NC2CC(C)(C)NC(C)(C)C2)cc1 [Compound I-69]
7,> 80 µM,Cc1ccc(OCc2ccc(C(=O)NC3CC(C)(C)NC(C)(C)C3)cc2)nc1 [Compound I-70]
8,> 80 µM,COc1cccc(Oc2ccc(C(=O)NC3CC(C)(C)NC(C)(C)C3)cc2)c1 [Compound I-71]
9,> 80 µM,Cc1ccccc1OCc1ccc(C(=O)NC2CC(C)(C)NC(C)(C)C2)cc1 [Compound I-74]
10,> 80 µM,CC1(C)CC(NC(=O)c2ccc(OCc3ccccc3)cc2)CC(C)(C)N1 [Compound I-75]
11,> 80 µM,CC1(C)CC(NC(=O)c2ccc(COc3cccc(C#N)c3)cc2)CC(C)(C)N1 [Compound I-76]
12,> 80 µM,CC1(C)CC(NC(=O)c2ccc(COc3cccnc3Cl)cc2)CC(C)(C)N1 [Compound I-77]
13,> 80 µM,CC1(C)CC(NC(=O)c2ccc(COc3ccccn3)cc2)CC(C)(C)N1 [Compound I-80]
14,> 80 µM,CC1(C)CC(NC(=O)c2ccc(OCc3ccc([N+](=O)[O-])cc3)cc2)CC(C)(C)N1 [Compound I-81]
15,> 80 µM,CC1(C)CC(NC(=O)c2ccc(CSc3ccccc3)cc2)CC(C)(C)N1 [Compound I-83]
16,> 80 µM,CC1(C)CC(NC(=O)c2ccc(OCCc3ccccc3)cc2)CC(C)(C)N1 [Compound I-84]
17,> 80 µM,"Cc1cccc(OCc2ccc(C(=O)NC3CC(C)(C)NC(C)(C)C3)cc2)n1 [Compound I-85, 4-((6-methylpyridin-2-yloxy)methyl)-N-(2,2,6,6-tetramethylpiperidin-4-yl)benzamide]"
18,> 80 µM,CC1(C)CC(NC(=O)c2ccc(OCc3cccc(F)c3)cc2)CC(C)(C)N1 [Compound I-88]
19,> 80 µM,Cc1ccc(Oc2ccc(C(=O)NC3CC(C)(C)NC(C)(C)C3)cc2)cn1 [Compound I-89]
20,> 80 µM,CC1(C)CC(NC(=O)c2ccc(OCc3ccccc3F)cc2)CC(C)(C)N1 [Compound I-90]
21,> 80 µM,"CC1(C)CC(NC(=O)c2ccc(CNc3ccccc3)cc2)CC(C)(C)N1 [Compound I-106, 4-((Phenylamino)methyl)-N-(2,2,6,6-tetramethylpiperidin-4-yl)benzamide]"
22,> 80 µM,COc1ccnc(Oc2ccc(C(=O)NC3CC(C)(C)NC(C)(C)C3)cc2)n1 [Compound I-109]
23,> 80 µM,CC1(C)CC(NC(=O)c2ccc(Oc3ncccc3F)cc2)CC(C)(C)N1 [Compound I-110]
24,> 80 µM,CC1(C)CC(NC(=O)c2ccc(COc3ccncc3)cc2)CC(C)(C)N1 [Compound I-112]
25,> 80 µM,COC(=O)c1ccc(COc2ccc(C(=O)NC3CC(C)(C)NC(C)(C)C3)cc2)cc1 [Compound I-117]
26,> 80 µM,"CNc1cccc(OCc2ccc(C(=O)NC3CC(C)(C)NC(C)(C)C3)cc2)n1 [Compound I-121, 4-(((6-(methylamino)pyridin-2-yl)oxy)methyl)-N-(2,2,6,6-tetramethylpiperidin-4-yl)benzamide]"
